Experiments:
[1] = Competitive slurry, inter-conversion of Type A and Type B; type: physicochemical; details: t-Butanol and t-Butanol/H2O, RT; water activity calculated from KF by COSMOlogic
[2] = Long-term stability test of Type A powder; type: physicochemical; details: 25±2° C./60±5% RH
Protocol: (§1) Furthermore, a long-term stability test and an accelerated stability test of Type A (in the form of powder) are executed, and the results thereof are shown in Table 19 and Table 20, respectively. More specifically, for the long-term stability test, the packaging and storage condition: package in double PE bags with silica gel in an aluminum bag and in a paper drum; sample quantity: 0.6 g; temperature: 25±2° C.; % relative humidity: 60±5%; frequency of analysis: 0, 1, 2, 3, 6, 9, 12, 18, 24, 36, 48 and 60 months; duration: 60 months. As for the accelerated stability test, the packaging and storage condition: package in double PE bags with silica gel in an aluminum bag and in a paper drum; sample quantity: 0.6 g; temperature: 40±2° C.; % relative humidity: 75±5%; frequency of analysis: 0, 1, 2, 3 and 6 months; duration: 6 months.

[3] = Accelerated stability test of Type A powder; type: physicochemical; details: 40±2° C./75±5% RH
Protocol: as §1

[4] = Solid stability evaluation for 1/2/4 weeks;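 note: Solid-state physical and chemical stability tracked by XRPD for form, KF for water content, and HPLC for purity and assay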
Protocol: Type A/B were stored under the conditions of 60° C., 25° C./60% RH, 25° C./92.5% RH and 40° C./75% RH for 1/2/4 weeks for solid stability evaluation. Amorphous was stored under the conditions of 25° C./60% RH and 40° C./75% RH for 1/2/4 weeks for solid stability evaluation. The physical and chemical stability were evaluated by X-ray powder diffraction (XRPD), thermo gravimetric analysis (TGA)/Karl Fischer (KF), differential scanning calorimetry (DSC)/modulated differential I scanning calorimetry (mDSC), high performance liquid chromatography (HPLC) purity and assay, respectively.
XRPD, TGA, DSC and KF in this example are under the same conditions with those described in Example 2.
Agilent 1260 were utilized and detailed chromatographic conditions are listed in

[5] = all storage conditions, 4 weeks

## O=C(/C=C/c1ccc2c(c1)CCN2S(=O)(=O)c1ccccc1)NO [Type A, (E)-N-hydroxy-3-(1-(phenylsulfonyl)indolin-5-yl) acrylamide]
[1]
  water activity at which the form was obtained in competitive slurry: ≥ 0.37
[2]; 0 months
  Appearance: Pale white powder
  Assay (HPLC) (98.0%~102.0%) (anhydrous basis): 101.6%
  Related substance (HPLC) ABT-301 dimer (NMT 0.5%): 0 a/a %
  Related substance (HPLC) Individual unknown Impurity (NMT 0.4%): 0.03%
  Related substance (HPLC) Total Impurities (NMT 1.0%): 0.1%
  Water content (KF) (NMT 4.0%): 2.6%
[2]; 1 month
  Appearance: Pale white powder
  Assay (HPLC) (98.0%~102.0%) (anhydrous basis): 100.3%
  Related substance (HPLC) ABT-301 dimer (NMT 0.5%): 0 a/a %
  Related substance (HPLC) Individual unknown Impurity (NMT 0.4%): 0.05%
  Related substance (HPLC) Total Impurities (NMT 1.0%): 0.1%
  Water content (KF) (NMT 4.0%): 2.6%
[2]; 2 months
  Appearance: Pale white powder
  Assay (HPLC) (98.0%~102.0%) (anhydrous basis): 100.6%
  Related substance (HPLC) ABT-301 dimer (NMT 0.5%): 0 a/a %
  Related substance (HPLC) Individual unknown Impurity (NMT 0.4%): 0.05%
  Related substance (HPLC) Total Impurities (NMT 1.0%): 0.1%
  Water content (KF) (NMT 4.0%): 2.6%
[2]; 3 months
  Appearance: Pale white powder
  Assay (HPLC) (98.0%~102.0%) (anhydrous basis): 101.4%
  Related substance (HPLC) ABT-301 dimer (NMT 0.5%): 0 a/a %
  Related substance (HPLC) Individual unknown Impurity (NMT 0.4%): 0.07%
  Related substance (HPLC) Total Impurities (NMT 1.0%): 0.1%
  Water content (KF) (NMT 4.0%): 2.6%
[2]; 6 months
  Appearance: Pale white powder
  Assay (HPLC) (98.0%~102.0%) (anhydrous basis): 100.2%
  Related substance (HPLC) ABT-301 dimer (NMT 0.5%): 0 a/a %
  Related substance (HPLC) Individual unknown Impurity (NMT 0.4%): 0.05%
  Related substance (HPLC) Total Impurities (NMT 1.0%): 0.1%
  Water content (KF) (NMT 4.0%): 2.6%
[2]; 9 months
  Appearance: Pale white powder
  Assay (HPLC) (98.0%~102.0%) (anhydrous basis): 100.6%
  Related substance (HPLC) ABT-301 dimer (NMT 0.5%): 0 a/a %
  Related substance (HPLC) Individual unknown Impurity (NMT 0.4%): 0.06%
  Related substance (HPLC) Total Impurities (NMT 1.0%): 0.1%
  Water content (KF) (NMT 4.0%): 2.9%
[2]; 12 months
  Appearance: Pale white powder
  Assay (HPLC) (98.0%~102.0%) (anhydrous basis): 100.4%
  Related substance (HPLC) ABT-301 dimer (NMT 0.5%): 0 a/a %
  Related substance (HPLC) Individual unknown Impurity (NMT 0.4%): 0.09%
  Related substance (HPLC) Total Impurities (NMT 1.0%): 0.2%
  Water content (KF) (NMT 4.0%): 2.6%
[2]; 18 months
  Appearance: Pale white powder
  Assay (HPLC) (98.0%~102.0%) (anhydrous basis): 100.0%
  Related substance (HPLC) ABT-301 dimer (NMT 0.5%): 0 a/a %
  Related substance (HPLC) Individual unknown Impurity (NMT 0.4%): 0.07%
  Related substance (HPLC) Total Impurities (NMT 1.0%): 0.1%
  Water content (KF) (NMT 4.0%): 2.8%
[2]; 24 months
  Appearance: Pale white powder
  Assay (HPLC) (98.0%~102.0%) (anhydrous basis): 99.8%
  Related substance (HPLC) ABT-301 dimer (NMT 0.5%): 0 a/a %
  Related substance (HPLC) Individual unknown Impurity (NMT 0.4%): 0.03%
  Related substance (HPLC) Total Impurities (NMT 1.0%): 0.1%
  Water content (KF) (NMT 4.0%): 2.7%
[2]; 36 months
  Appearance: Pale wlite powder
  Assay (HPLC) (98.0%~102.0%) (anhydrous basis): 100.1%
  Related substance (HPLC) ABT-301 dimer (NMT 0.5%): 0 a/a %
  Related substance (HPLC) Individual unknown Impurity (NMT 0.4%): 0.08%
  Related substance (HPLC) Total Impurities (NMT 1.0%): 0.1%
  Water content (KF) (NMT 4.0%): 2.6%
[2]; 48 months
  Appearance: Pale white powder
  Assay (HPLC) (98.0%~102.0%) (anhydrous basis): 100.4%
  Related substance (HPLC) ABT-301 dimer (NMT 0.5%): 0 a/a %
  Related substance (HPLC) Individual unknown Impurity (NMT 0.4%): 0.08%
  Related substance (HPLC) Total Impurities (NMT 1.0%): 0.1%
  Water content (KF) (NMT 4.0%): 2.6%
[2]; 60 months
  Appearance: Pale white powder
  Assay (HPLC) (98.0%~102.0%) (anhydrous basis): 100.5%
  Related substance (HPLC) Individual unknown Impurity (NMT 0.4%): 0.08%
  Related substance (HPLC) Total Impurities (NMT 1.0%): 0.1%
  Water content (KF) (NMT 4.0%): 2.6%
[3]; 0 months
  Appearance: Pale white powder
  Assay (HPLC) (98.0%~102.0%) (anhydrous basis): 101.6%
  Related substance (HPLC) ABT-301 dimer (NMT 0.5%): 0.03 a/a %
  Related substance (HPLC) Individual unknown Impurity (NMT 0.4%): 0.03%
  Related substance (HPLC) Total Impurities (NMT 1.0%): 0.08%
  Water content (KF) (NMT 4.0%): 2.6%
[3]; 1 month
  Appearance: Pale white powder
  Assay (HPLC) (98.0%~102.0%) (anhydrous basis): 100.2%
  Related substance (HPLC) ABT-301 dimer (NMT 0.5%): 0.03 a/a %
  Related substance (HPLC) Individual unknown Impurity (NMT 0.4%): 0.05%
  Related substance (HPLC) Total Impurities (NMT 1.0%): 0.12%
  Water content (KF) (NMT 4.0%): 2.6%
[3]; 2 months
  Appearance: Pale white powder
  Assay (HPLC) (98.0%~102.0%) (anhydrous basis): 101.2%
  Related substance (HPLC) ABT-301 dimer (NMT 0.5%): 0.03 a/a %
  Related substance (HPLC) Individual unknown Impurity (NMT 0.4%): 0.03%
  Related substance (HPLC) Total Impurities (NMT 1.0%): 0.09%
  Water content (KF) (NMT 4.0%): 2.6%
[3]; 3 months
  Appearance: Pale white powder
  Assay (HPLC) (98.0%~102.0%) (anhydrous basis): 101.8%
  Related substance (HPLC) ABT-301 dimer (NMT 0.5%): 0.03 a/a %
  Related substance (HPLC) Individual unknown Impurity (NMT 0.4%): 0.06%
  Related substance (HPLC) Total Impurities (NMT 1.0%): 0.11%
  Water content (KF) (NMT 4.0%): 2.6%
[3]; 6 months
  Appearance: Pale white powder
  Assay (HPLC) (98.0%~102.0%) (anhydrous basis): 99.8%
  Related substance (HPLC) ABT-301 dimer (NMT 0.5%): 0.03 a/a %
  Related substance (HPLC) Individual unknown Impurity (NMT 0.4%): 0.06%
  Related substance (HPLC) Total Impurities (NMT 1.0%): 0.13%
  Water content (KF) (NMT 4.0%): 2.6%
[4]; 25° C./60% RH, 1 week
  Assay: 96.4%
  Form (XRPD): Type A
  HPLC purity: 99.85 Area %
[4]; 25° C./60% RH, 2 weeks
  Assay: 94.7%
  Form (XRPD): Type A
  HPLC purity: 99.83 Area %
[4]; 25° C./60% RH, 4 weeks
  Assay: 96.4%
  Form (XRPD): Type A
  HPLC purity: 99.84 Area %
  KF (water content): 2.8030%
[4]; 40° C./75% RH, 1 week
  Assay: 96.6%
  Form (XRPD): Type A
  HPLC purity: 99.84 Area %
[4]; 40° C./75% RH, 2 weeks
  Assay: 95.6%
  Form (XRPD): Type A
  HPLC purity: 99.84 Area %
[4]; 40° C./75% RH, 4 weeks
  Assay: 96.1%
  Form (XRPD): Type A
  HPLC purity: 99.85 Area %
  KF (water content): 4.1509%
[4]; 60° C., 1 week
  Assay: 96.2%
  Form (XRPD): Type A
  HPLC purity: 99.83 Area %
[4]; 60° C., 2 weeks
  Assay: 95.0%
  Form (XRPD): Type A
  HPLC purity: 99.76 Area %
[4]; 60° C., 4 weeks
  Assay: 95.7%
  Form (XRPD): Type A
  HPLC purity: 99.82 Area %
  KF (water content): 4.3786%
[4]; Initial
  Assay: 95.6%
  Form (XRPD): Type A
  HPLC purity: 99.84 Area %
  KF (water content): 2.8220%
[4]; […], 1 week
  Assay: 96.3%
  Form (XRPD): Type A
  HPLC purity: 99.85 Area %
[4]; […], 2 weeks
  Assay: 95.6%
  Form (XRPD): Type A
  HPLC purity: 99.84 Area %
[4]; […], 4 weeks
  Assay: 96.5%
  Form (XRPD): Type A
  HPLC purity: 99.85 Area %
  KF (water content): 3.1154%
[4]; [5]
  HPLC purity change after solid stability: no form change, or obvious HPLC purity change
  form change after solid stability: no form change

Reference: patent US12252469B2, “Crystalline forms of (E)-N-hydroxy-3-(1-(phenylsulfonyl)indolin-5-yl)acrylamide” (ANBOGEN THERAPEUTICS INC., priority 2023, dated 2025)
